Laboratory results: patent US20250123268A1, “COMPOSITIONS AND METHODS FOR ACCELERATING DEVELOPMENT OF CANCER THERAPEUTICS” (NetNoids Rx Laboratories, LLC, priority 2023, published 2025)
“Also recorded” adds a separate entry of the source.

What was measured:
[1] = test system: PDL-1 positive PDT of TNBC; experiment: PDL-1 positive TNBC PDT tumor volume, anti-PD1 treatment, with/without PBMCs (COMPASS 2); format: cell-based, human; details: same model without the addition of PBMCs
Experimental: All experiments were conducted with n=3 replicates and data was analyzed by One Way ANOVA followed by student's t-test to check for statistical significance.

[2] = test system: TNBC-1; experiment: COMPASS C1/C3a/C3c drug regimen testing, TNBC-1 tumor volume; format: cell-based, human; details: for tumor volume (efficacy): 50 nM & 500 nM
Experimental: Methods: COMPASS Platforms for TIME Modeling for Drug Regimen Testing: I.A. C1/C3a/C3c for TNBC-1 against 1) Doxorubicin 50 nM & 500 nM (Control: DMSO 0.01%), 2) Sacituzumab 5 nM & 20 nM [Control: PBS 0.01%] via continuous treatment w/initial administration at post-seeding Day 1; I.B. C2/C3b/C3d for GBC-1 against 1) Gemcitabine+Cisplatin 1 μM & 10 μM (G+C 7:1 ratio) (Control: DMSO 0.03%) 2) Gemcitabine+Cisplatin 1 μM+Durvalumab 0.1 nM; Gemcitabine+Cisplatin 10 μM+Durvalumab 1 nM (Control: DMSO 0.03%) (G+C 7:1 ratio) via continuous treatment w/initial administration at post-seeding Day 3; II. C1/C3b/C3d for HUAS-1 against 1) HSP90i 50 nM & 100 nM, (Control: DMSO 0.01-0.5%), 2) HSP90i 50 nM+Doxorubicin 50 nM & HSP90i 100 nM+Doxorubicin 50 nM, (Control: DMSO 0.01-0.5%) via continuous treatment w/initial administration at post-seeding Day 3; • Experimental Set-Up: Series (C1/C2) & representative parallel experimentation (C3), n=3 per group; • Evaluation: Imaging—Phase Contrast Imaging via Biotek Cytation 5 (Agilent) with partial well plug for object selection ([…] for C1/C2 & […] for C3) towards tumor volume analysis at Timepoints Day 3 and Day 7/10; • Statistics: One-way ANOVA followed by Tukey's pairwise comparison, n=3, (p<0.05).
FIGS. 28A-L: Common Cancers (TNBC and GBC) vs Established Drug Regimens (Doxorubicin/Sacituzumab and Gemcitabine+Cisplatin+/−Durvalumab, respectively) treatment profiles across progressing, appropriately-matched COMPASS Platforms at Day 3 and Day 10 Timepoints. Compass 1 is used for small molecules. Compass 2 is used in studies when Durvalumab (which is an anti-PDL 1 inhibitor) is added and it works by using the immune system (checkpoint inhibitor), which makes the immune system […]. Sub-studies highlighting the versatility of COMPASS platforms in the generation of specific Tumor-Immune-Microenvironment Models—designed appropriately for intended drug mechanism testing of already clinically-approved treatment regimens. […]

Compound: Pembrolizumab [anti-PD1 inhibitor]
- immune checkpoint mediated reduction in tumor volume [1]: not observed

Compound: Sacituzumab
- tumor volume vs control ([2]; 5 nM & 20 nM, supplemental structural matrix & oxygenation (C3c), p=0.04): revealed efficacy in oxygenated conditions; also recorded: tumor volume reduction vs control

Compound: COc1cccc2c1C(=O)c1c(O)c3c(c(O)c1C2=O)C[C@@](O)(C(=O)CO)C[C@@H]3O[C@H]1C[C@H](N)[C@H](O)[C@H](C)O1 [Doxorubicin]
- tumor volume (efficacy) ([2]; C1 model): slight efficacy
- tumor volume (efficacy) ([2]; C3 models): potential resistance
